Measured values: article PMC5526615, “Phenotypic, chemical and functional characterization of cyclic nucleotide phosphodiesterase 4 (PDE4) as a potential anthelmintic drug target” (PLoS Neglected Tropical Diseases, 2017)
“And” between values parts separate entries of the source, which are not always exact repeats. Identical values can stand only once. Like-named read-outs stand apart in the source and are kept apart here.

Tests used:
SmPDE4A = SmPDE4A (Schistosoma mansoni, UniProt A0A5K4ENE3); experiment: biochemical
Chain of SmPDE4A (A0A5K4ENE3 entry or part of it): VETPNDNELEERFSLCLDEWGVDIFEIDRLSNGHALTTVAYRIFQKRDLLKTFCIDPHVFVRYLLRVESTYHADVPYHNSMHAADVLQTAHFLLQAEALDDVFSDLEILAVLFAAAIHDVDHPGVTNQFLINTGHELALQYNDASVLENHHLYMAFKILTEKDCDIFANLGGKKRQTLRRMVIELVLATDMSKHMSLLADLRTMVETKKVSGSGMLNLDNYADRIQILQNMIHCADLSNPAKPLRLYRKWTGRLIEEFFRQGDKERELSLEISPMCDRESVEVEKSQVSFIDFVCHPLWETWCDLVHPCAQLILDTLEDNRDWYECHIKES
Experimental: Assays were performed in triplicate, and IC50 values were determined by non-linear regression analysis using the four-parameter logistic equation (Prism GraphPad version. 6.03).
Assay of PDE4 enzymatic activity was as described: huPDE4B2 was purchased from Proteros Biostructures, GmbH, Martinsried, Germany. […] The precipitate was collected by filtration onto Multi-Screen HTS FB plates (Millipore, Billerica, MA), washed and then dried for quantitation of radioactivity. For tests with PDE4 inhibitors, fifty percent inhibitory concentration (IC50) values were calculated based on a four-parameter logistic equation: the means and number of replicates are reported in Fig 4.

huPDE4B2 = target: T1, huPDE4B2 (Homo sapiens, UniProt Q07343); experiment: PDE4 inhibition assay, huPDE4B2 catalytic domain ([3H]-cAMP hydrolysis); format: biochemical; conditions: Anacor's in-house data, mean ± SD (number of assays) or two single assay values, read-out: Human PDE4B2 IC50
T1 construct: performed using the catalytic domains of (A) huPDE4B2 (NP_001032416.1); purchased Proteros Biostructures, GmbH, Martinsried, Germany
T1 sequence (Q07343 324-659): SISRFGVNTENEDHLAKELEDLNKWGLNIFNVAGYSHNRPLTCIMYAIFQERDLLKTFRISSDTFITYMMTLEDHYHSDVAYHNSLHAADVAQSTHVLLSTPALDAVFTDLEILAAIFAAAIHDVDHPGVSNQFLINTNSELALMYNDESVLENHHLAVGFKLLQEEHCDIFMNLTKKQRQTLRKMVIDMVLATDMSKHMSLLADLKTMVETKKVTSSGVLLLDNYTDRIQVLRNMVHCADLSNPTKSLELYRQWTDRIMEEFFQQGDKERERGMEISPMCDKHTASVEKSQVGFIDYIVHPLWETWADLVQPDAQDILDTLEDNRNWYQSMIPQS
Experimental: Assays with each inhibitor were performed using the catalytic domains of (A) huPDE4B2 (NP_001032416.1) and (B) SmPDE4A (Smp_134140).
Assay of PDE4 enzymatic activity was as described [96]: huPDE4B2 was purchased from Proteros Biostructures, GmbH, Martinsried, Germany. […] The precipitate was collected by filtration onto Multi-Screen HTS FB plates (Millipore, Billerica, MA), washed and then dried for quantitation of radioactivity.

adult S. mansoni = experiment: Wormassay adult worm motility; format: cell-based; conditions: Schistosoma mansoni, 1 h, read-out: Adult motility (-fold increase vs. DMSO controls)
Experimental: Adult schistosome screens were performed in 24-well plates (Corning Inc., cat. # 3544) using five worm pairs per well in a final volume of 2 ml of the above Basch medium. Compound was added in a volume of 1 μl DMSO such that the final concentration was 10 μM. Incubations were maintained for 3 days at 37°C under 5% CO2.
Parasite responses to chemical insult were adjudicated visually every 24 h (also at the 1 h time point for adults) using an inverted microscope and employed a constrained nomenclature of phenotype descriptors (e.g., rounding, degeneration, overactivity and slowed motility) as described. For adult parasites, in addition to observation-based annotations, we employed Wormassay to measure worm motility. Briefly, Wormassay comprises a commodity digital movie camera connected to an Apple personal computer that operates an open source software application to automatically process multiple wells (in 6-, 12- or 24-well plate formats). The application detects worm-induced changes in the occupation and vacancy of pixels between frames (outputted as an average ± S.D.). Worm motion was quantified using the “Consensus Voting Luminance Difference” option.

[1] = system: WT C. elegans (N2 Bristol); experiment: C. elegans motility assay (body bends), wild type; format: cell-based, Caenorhabditis elegans; conditions: 100 μM, 16 h
Experimental: (§1) Compounds were directly added onto the OP50 food source at a 100 μM final concentration or the equivalent 0.2% DMSO as control. Previously synchronized early L4 stage larvae were cultivated on NGM plates with OP50 and compounds at 20°C for 16 h. For each experimental condition and transgenic line, motility was measured for 10–20 animals. The animals were washed twice in S basal buffer, transferred onto a new NGM plate in the absence of bacteria. After a brief period of recovery from this manipulation, locomotion was measured by counting the number of body bends in 30 s intervals under a stereoscope.

huPDE4A = huPDE4A ref 96; cited from earlier work
huPDE4B = huPDE4B ref 96; cited from earlier work
huPDE4D = huPDE4D ref 96; cited from earlier work
[2] = system: pde4(ce268);smpde4a(a) and pde4(ce268);smpde4a(b) transgenic C. elegans; experiment: C. elegans motility assay (body bends), transgenic lines expressing smpde4a; format: cell-based, Caenorhabditis elegans; conditions: 100 μM, 16 h
Experimental: To generate C. elegans that carry the SmPDE4A transgene, the plasmids described above were purified and microinjected into the gonads of both WT (N2) and pde4(ce268) mutant strains at a concentration of 50 ng/μl. The injected worms (P0) were transferred to individual freshly seeded bacteria plates and allowed to reproduce. F1 progeny were screened for evidence of transgene expression based on the GFP marker. Each transgenic F1 was then singled onto a new plate. This process was repeated until lines that stably transmit the transgene were established in WT or pde(ce268) animal backgrounds. To verify the consistency of GFP expression in the transgenic lines, 10–20 transgenic animals from each line were examined using a Zeiss Axioplan II stereoscope equipped with a FITC/GFP filter (emission 500–515 nm).
as §1, with “The animals were washed twice in S basal buffer, transferred onto a new NGM plate in the absence of bacteria.” left out

[3] = recombinant catalytic domain, mean ± SD (number of assays) or two single assay values, read-out: SmPDE4A IC50
[4] = SmPDE4A IC50, recombinant catalytic domain, mean ± SD (number of assays) or two single assay values

| Structure (SMILES) | IC50 (SmPDE4A; [3]) [µM] | IC50 (huPDE4B2) | fold induction at 10 µM (adult S. mansoni; Wormassay, 10 μM after 1 h) | also measured |
| --- | --- | --- | --- | --- |
| CN(C)C(=O)CCCOc1nc(Oc2ccc3c(c2)COB3O)ccc1C#N [Compound 3] | 0.0147 ± 0.0064 | 0.03 ± 0.0267 µM | 7.1 | – |
| CC(=O)CCCOc1nc(Oc2ccc3c(c2)COB3O)c(Cl)cc1C#N [Compound 2] | – | – | 7.9 | motility relative to the DMSO control [1]: increased motility |
| O=C(Nc1c(Cl)cncc1Cl)c1ccc(OC(F)F)c(OCC2CC2)c1 [Roflumilast, roflumilast, reference compound] | – | – | – | IC50 (SmPDE4A; [4]): 0.0113 µM and 0.018 µM and 0.011 µM |
| CC(=O)CCCOc1nc(Oc2cc(F)c3c(c2)COB3O)c(Cl)cc1C#N [Compound 1] | – | – | 9.9 | – |
| Nc1ncnc2c1ncn2[C@@H]1O[C@@H]2COP(=O)(O)O[C@H]2[C@H]1O [cAMP, cyclic adenosine monophosphate] | – | – | – | Km (huPDE4A): 0.98 µM; Km (huPDE4B): 2.25 µM; Km (huPDE4D): 7.81 µM |
| CC(C)S(=O)(=O)c1ccc(Oc2ccc3c(c2)COB3O)cc1 [Compound 6] | 0.415 | 0.0436 µM and 0.065 µM | 1.5 | – |
| COc1ccc(C2CNC(=O)C2)cc1OC1CCCC1 (stereo not shown) [Rolipram, rolipram, reference compound] | – | – | – | IC50 (SmPDE4A; recombinant catalytic domain, read-out: SmPDE4A IC50): > 10 µM; motility of mutant lines carrying the smpde4a transgene [2]: increased motility significantly |
| N#Cc1ccc(Oc2ccc3c(c2)COB3O)cc1C(F)(F)F [Compound 5] | – | 0.0689 µM and 0.0221 µM | – | IC50 (SmPDE4A; [4]): 0.047 ± 0.0274 µM; fold induction at 10 µM (adult S. mansoni): 3.9 |
| N#Cc1ccc(Oc2ccc3c(c2)COB3O)cc1O [Compound 7] | 0.123 | 0.0193 µM and 0.0324 µM | 1.1 | – |
| CC(C)OCCOc1nc(Oc2ccc3c(c2)COB3O)ccc1C#N [Compound 4] | 0.012 ± 0.0062 | 0.0038 ± 0.0027 µM | 5.7 | motility relative to the DMSO control [1]: did not |
